Experimental data: patent US20240083900A1, “PYRAZOLO[1,5-A]PYRAZINE DERIVATIVES AS BTK INHIBITORS” (BIOGEN MA INC., priority 2020, published 2024)

Molecular target: BTK (Homo sapiens (Human), UniProt Q06187)
Assay: In Vitro BTK Kinase Assay: Btk-PolyGAT-LS Assay
Type: biochemical
Conditions: BTK enzyme 0.25 nM, ATP 10 μM, polyGAT 100 nM, 30 minutes incubation, TRF readout; read-out: IC50
Procedure: The purpose of the BTK in vitro assay is to determine compound potency against BTK through the measurement of IC50. […] For a typical assay, a 24 μL aliquot of a ATP/peptide master mix (final concentration; ATP 10 μM, polyGAT 100 nM) in kinase buffer (10 mM Tris-HCl pH 7.5, 10 mM MgCl2, 200 μM Na3PO4, 5 mM DTT, 0.01% Triton X-100, and 0.2 mg/ml casein) is added to each well. […] The assay is incubated for 30 minutes before being stopped with 28 μL of a 50 mM EDTA solution. […] The plate is covered and incubated for 45 minutes at room temperature.

BTK, sequence (Q06187 whole entry): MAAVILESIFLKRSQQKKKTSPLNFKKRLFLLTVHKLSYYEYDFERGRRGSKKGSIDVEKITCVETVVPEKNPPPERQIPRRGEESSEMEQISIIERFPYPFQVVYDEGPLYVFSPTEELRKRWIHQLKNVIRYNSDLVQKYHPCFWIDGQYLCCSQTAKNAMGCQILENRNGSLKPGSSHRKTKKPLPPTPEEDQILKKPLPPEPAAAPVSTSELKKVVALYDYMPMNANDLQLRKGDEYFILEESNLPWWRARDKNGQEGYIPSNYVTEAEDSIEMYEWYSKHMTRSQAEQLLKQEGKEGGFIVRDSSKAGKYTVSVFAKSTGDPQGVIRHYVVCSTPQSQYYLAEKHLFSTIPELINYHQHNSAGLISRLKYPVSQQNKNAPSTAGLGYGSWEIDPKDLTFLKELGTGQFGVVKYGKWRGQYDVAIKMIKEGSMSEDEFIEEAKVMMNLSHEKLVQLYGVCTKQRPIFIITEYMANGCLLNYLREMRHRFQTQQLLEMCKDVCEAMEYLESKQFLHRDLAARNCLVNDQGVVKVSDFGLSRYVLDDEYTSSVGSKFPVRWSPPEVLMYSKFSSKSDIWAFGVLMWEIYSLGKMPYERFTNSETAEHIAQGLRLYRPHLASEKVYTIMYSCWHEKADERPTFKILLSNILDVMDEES

SMILES	IC50 [nM]
C=CC(=O)N(C)[C@H]1C[C@@H](Oc2nc(-c3cnn(C)c3)cn3nc(N)cc23)C1 [Example 68, N-((cis)-3-((2-amino-6-(1-methyl-1H-pyrazol-4-yl)pyrazolo[1,5-a]pyrazin-4-yl)oxy)cyclobutyl)-N-methylacrylamide]	< 1
CN(C)C/C=C/C(=O)N(CC(F)F)[C@H]1CC[C@@H](Oc2nc(-c3cnn(C)c3)cn3nccc23)C1 [Example 147, (E)-N-(2,2-difluoroethyl)-4-(dimethylamino)-N-((1S,3R)-3-((6-(1-methyl-1H-pyrazol-4-yl)pyrazolo[1,5-a]pyrazin-4-yl)oxy)cyclopentyl)but-2-enamide]	1 to 10
C=CC(=O)N1CCCC(Oc2nc(-c3cnn(C)c3)cn3ncc(Cl)c23)[C@H](F)C1 (mixture of isomers) [Example 203]	10 to 1000
C=CC(=O)N1CC[C@]2(CC[C@H](Oc3nc(-c4cnn(C)c4)cn4nccc34)C2)C1 (single isomer, unassigned) [Example 204]	10 to 1000
CN(C)C/C=C/C(=O)N[C@H]1CCC[C@@H](Oc2nc(-c3cnn(C)c3)cn3ncc(F)c23)C1 [Example 94, (E)-4-(dimethylamino)-N-((1S,3R)-3-((3-fluoro-6-(1-methyl-1H-pyrazol-4-yl)pyrazolo[1,5-a]pyrazin-4-yl)oxy)cyclohexyl)but-2-enamide]	10 to 1000
C=CC(=O)N1CC2CC1CC2Nc1cc(-c2cnn(C)c2)cn2nccc12 (centres unmarked) [Example 88, 1-(5-((6-(1-methyl-1H-pyrazol-4-yl)pyrazolo[1,5-a]pyridin-4-yl)amino)-2-azabicyclo[2.2.1]heptan-2-yl)prop-2-en-1-one]	1 to 10
C=CC(=O)N(C)[C@@H]1C[C@](C)(Oc2nc(-c3cnn(C)c3)cn3nccc23)[C@@H]1C (single isomer, unassigned) [Example 105]	10 to 1000
C=CC(=O)N1C[C@@H]2C[C@H](Oc3nc(-c4cnn(C)c4)cn4nccc34)C[C@@H]21 (racemic) [Example 210, rac-1-((1S,3S,5S)-3-((6-(1-methyl-1H-pyrazol-4-yl)pyrazolo[1,5-a]pyrazin-4-yl)oxy)-6-azabicyclo[3.2.0]heptan-6-yl)prop-2-en-1-one]	10 to 1000
Cn1cc(-c2cn3nccc3c(Oc3cccc(NC(=O)C#CC4CC4)c3Cl)n2)cn1 [Example 133, N-(2-chloro-3-((6-(1-methyl-1H-pyrazol-4-yl)pyrazolo[1,5-a]pyrazin-4-yl)oxy)phenyl)-3-cyclopropylpropiolamide]	< 1
C#CC(=O)N1CCC[C@H](COc2nc(-c3cnn(C)c3)cc3nccn23)C1 [Example 46]	1 to 10
C=CC(=O)N(C)[C@H]1C[C@H](Oc2nc(-c3cnn(C)c3)cn3nccc23)C1(C)C (racemic) [Example 218, rac-N-((trans)-2,2-dimethyl-3-((6-(1-methyl-1H-pyrazol-4-yl)pyrazolo[1,5-a]pyrazin-4-yl)oxy)cyclobutyl)-N-methylacrylamide]	1 to 10
C/C=C/C(=O)Nc1cc(Oc2nc(-c3cnn(C)c3)cn3nccc23)ccc1C [Example 131, (E)-N-(2-methyl-5-((6-(1-methyl-1H-pyrazol-4-yl)pyrazolo[1,5-a]pyrazin-4-yl)oxy)phenyl)but-2-enamide]	10 to 1000
C#CC(=O)N1CCC[C@@H](Oc2nc(-c3cnn(C)c3)cc3nccn23)CC1 (single isomer, unassigned) [Example 35, (S) or (R)-1-(4-((7-(1-methyl-1H-pyrazol-4-yl)imidazo[1,2-c]pyrimidin-5-yl)oxy)azepan-1-yl)prop-2-yn-1-one]	1 to 10
C=CC(=O)N1CC2CCC(N(C)c3cc(-c4cnn(C)c4)cn4nccc34)C2C1 (centres unmarked) [Example 154, 1-(4-(methyl(6-(1-methyl-1H-pyrazol-4-yl)pyrazolo[1,5-a]pyridin-4-yl)amino)hexahydrocyclopenta[c]pyrrol-2(1H)-yl)prop-2-en-1-one]	10 to 1000
